The results in this text go back to publication PMC5700813, “A recombinant BBSome core complex and how it interacts with ciliary cargo” (eLife, 2017).

B1: Arl6•GppNHp: Arl6 (residues 17–186, Q73L, C-terminal Strep-tag) with the nucleotide exchanged to GppNHp (protein)
chain: EVHVLCLGLDNSGKTTIINKLKPSNAQSQNILPTIGFSIEKFKSSSLSFTVFDMSGLGRYRNLWEHYYKEGQAIIFVIDSSDRLRMVVAKEELDTLLNHPDIKHRRIPILFFANKMDLRDAVTSVKVSQLLCLENIKDKPWHICASDAIKGEGLQEGVDWLQDQIQTVKT
modifications: left off: Strep-tag, C-terminal, kept
notes: Arl6 (residues 17–186, Q73L, C-terminal Strep-tag) with the nucleotide exchanged to GppNHp
B2: Arl6•GDP: Arl6 (residues 17–186, Q73L, C-terminal Strep-tag) with the nucleotide exchanged to GDP (protein)
chain: B1 chain
modifications: left off: Strep-tag, C-terminal, kept
notes: Arl6 (residues 17–186, Q73L, C-terminal Strep-tag) with the nucleotide exchanged to GDP

Entries after “also recorded” stand apart in the source; their conditions may differ. Ends that are not written are not given here. Peptide text beside a SMILES is read from it. A value given as a limit tells only on which side of the number the result lay.

One assay deals with core BBSome. In words: Pulldown of core BBSome with immobilized bait on Streptactin beads. Type of assay: binding, human. The note with it: 7.5 fold molar excess of bait immobilized to Streptactin-coupled Sepharose beads. The text has this:
From previous data, BBS1 seems to be the BBSome subunit most relevant for cargo recognition and Arl6 binding. We first tested the binding of Arl6 to the BBSome core complex. […] To test whether the core BBSome can recognize known BBSome cargo proteins, we generated a truncated (residues R546-L665) version of the Smo receptor, which contains a ciliary targeting motif predicted to interact with the BBSome ([Zhang et al., 2012a]; [Seo et al., 2011]; [Corbit et al., 2005]). In pulldown experiments as described above (Figure 3), the binding was clearly detectable, but considerably weaker than that of Arl6•GppNHp. In fluorescence polarization experiments (see below), we determined the affinity for a fluoresceine-labeled version of this Smo fragment to be 36.1 ± 3.9 µM.
Figure 3. Pulldown of core BBSome with immobilized Arl6 and Smoothened domain R546-L665. Purified core BBSome samples were pulled down by a 7.5 fold molar excess of Arl6•GDP, Arl6•GppNHp or Smo(R546-L665) immobilized to Streptactin-coupled Sepharose beads. […] Smo(R546-L665) bound weaker, but still captured >2% of the BBSome sample. This was approximated by a comparison of the 1:50 diluted Arl6•GppNHp elution with the undiluted Smo(R546-L665) elution in a Flag-blot against Flag-BBS8 from the BBSome core complex.
Pulldown assays were performed using 20 µl Strep-Tactin Superflow high capacity resin (IBA, Germany) per assay equilibrated with pulldown buffer (50 mM Hepes pH 8.0, 150 mM NaCl, 5 mM MgCl2, 5 mM ß-ME and 0.05% DDM). Smo(R546-L665, N-terminal Strep-tag) and Arl6 (residues 17–186, Q73L, C-terminal Strep-tag, with the nucleotide exchanged to either GDP or GppNHp) was immobilized as the bait, and the 6mer BBSome core complex served as the prey (The dual-Strep-tag on BBS18 within the complex was completely removed by Prescission protease cleavage for this experiment). 35 µg of the bait proteins were incubated with the beads in 1 ml pulldown buffer at 4°C for 1 hr, and the unbound protein was washed away with 3 × 1 ml pulldown buffer. […]
Take B1: the “pulldown of core BBSome (result in words)” value (“pulldown of core BBSome” below) is listed as “precipitated the major part of the BBSome”.

For the molecule B2, the “pulldown of core BBSome” value was “no detectable affinity; also recorded: no interaction”.

Still in this assay, the particulars now being: 7.5 fold molar excess of bait immobilized to Streptactin-coupled Sepharose beads; listed as Arl6•GppNHP.
For B1, the “pulldown of core BBSome” value is listed as “captured most of the BBSome sample”.

The next assay deals with T1, core BBSome (BBS1,4,5,8,9,18).
T1 construct: His-tag; made in house; host or cells: Hi5 insect cells (baculovirus)
T1 sequence (Q8NFJ9 whole entry, stated change not applied): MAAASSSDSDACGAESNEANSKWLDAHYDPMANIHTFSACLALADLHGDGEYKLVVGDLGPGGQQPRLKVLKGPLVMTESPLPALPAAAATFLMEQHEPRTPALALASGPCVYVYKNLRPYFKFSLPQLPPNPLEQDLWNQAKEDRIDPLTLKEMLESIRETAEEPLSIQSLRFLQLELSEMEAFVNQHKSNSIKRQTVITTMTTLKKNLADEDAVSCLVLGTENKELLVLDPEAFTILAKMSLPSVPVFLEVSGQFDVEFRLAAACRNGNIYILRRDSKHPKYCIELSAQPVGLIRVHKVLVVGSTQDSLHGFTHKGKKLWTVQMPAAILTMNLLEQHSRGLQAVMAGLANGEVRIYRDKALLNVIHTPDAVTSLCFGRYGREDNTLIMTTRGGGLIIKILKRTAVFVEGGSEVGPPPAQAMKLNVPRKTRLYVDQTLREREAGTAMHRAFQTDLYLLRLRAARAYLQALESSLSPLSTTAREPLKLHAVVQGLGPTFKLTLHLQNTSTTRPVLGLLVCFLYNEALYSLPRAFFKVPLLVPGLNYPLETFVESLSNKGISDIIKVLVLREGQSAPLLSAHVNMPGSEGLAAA
T1 sequence (Q96RK4 whole entry, stated change not applied, further chain): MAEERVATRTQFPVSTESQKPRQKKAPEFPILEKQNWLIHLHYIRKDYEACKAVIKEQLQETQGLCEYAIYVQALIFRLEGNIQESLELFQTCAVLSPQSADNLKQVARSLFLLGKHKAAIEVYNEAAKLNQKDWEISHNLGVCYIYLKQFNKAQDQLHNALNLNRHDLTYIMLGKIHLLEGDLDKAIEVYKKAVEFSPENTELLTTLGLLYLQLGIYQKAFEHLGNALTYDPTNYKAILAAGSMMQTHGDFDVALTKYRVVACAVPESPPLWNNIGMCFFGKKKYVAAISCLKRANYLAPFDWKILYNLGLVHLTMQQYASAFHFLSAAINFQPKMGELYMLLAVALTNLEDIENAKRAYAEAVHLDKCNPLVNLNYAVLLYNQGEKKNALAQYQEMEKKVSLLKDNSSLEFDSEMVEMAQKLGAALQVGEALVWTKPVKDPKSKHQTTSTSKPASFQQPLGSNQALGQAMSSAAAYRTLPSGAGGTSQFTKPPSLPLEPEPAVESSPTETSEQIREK
T1 sequence (Q8N3I7 whole entry, stated change not applied, further chain): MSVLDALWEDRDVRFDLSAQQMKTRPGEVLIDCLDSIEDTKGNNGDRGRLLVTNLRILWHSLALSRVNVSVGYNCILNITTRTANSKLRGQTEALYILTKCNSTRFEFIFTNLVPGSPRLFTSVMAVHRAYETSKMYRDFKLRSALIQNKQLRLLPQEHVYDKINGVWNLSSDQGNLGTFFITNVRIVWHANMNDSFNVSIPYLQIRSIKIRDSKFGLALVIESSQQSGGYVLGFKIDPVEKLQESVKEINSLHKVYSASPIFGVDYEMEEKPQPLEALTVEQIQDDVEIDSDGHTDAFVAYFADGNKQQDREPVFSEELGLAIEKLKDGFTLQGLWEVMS
T1 sequence (Q8TAM2 with tags, fused parts or gaps isoform Q8TAM2-4 DEL39-48, further chain): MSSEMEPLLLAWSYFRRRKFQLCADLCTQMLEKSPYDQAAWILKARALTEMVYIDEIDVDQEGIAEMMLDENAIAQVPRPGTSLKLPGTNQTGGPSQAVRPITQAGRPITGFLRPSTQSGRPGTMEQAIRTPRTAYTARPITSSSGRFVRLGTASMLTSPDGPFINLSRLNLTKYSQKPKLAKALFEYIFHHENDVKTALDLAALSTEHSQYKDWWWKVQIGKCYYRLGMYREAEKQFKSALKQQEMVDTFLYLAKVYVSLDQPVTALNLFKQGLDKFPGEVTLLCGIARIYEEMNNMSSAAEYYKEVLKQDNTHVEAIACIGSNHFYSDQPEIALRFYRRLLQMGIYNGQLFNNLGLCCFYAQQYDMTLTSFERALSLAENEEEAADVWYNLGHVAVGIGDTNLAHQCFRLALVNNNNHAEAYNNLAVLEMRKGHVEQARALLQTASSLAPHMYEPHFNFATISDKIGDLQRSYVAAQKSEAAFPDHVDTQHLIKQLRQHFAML
T1 sequence (Q3SYG4 whole entry, stated change not applied, further chain): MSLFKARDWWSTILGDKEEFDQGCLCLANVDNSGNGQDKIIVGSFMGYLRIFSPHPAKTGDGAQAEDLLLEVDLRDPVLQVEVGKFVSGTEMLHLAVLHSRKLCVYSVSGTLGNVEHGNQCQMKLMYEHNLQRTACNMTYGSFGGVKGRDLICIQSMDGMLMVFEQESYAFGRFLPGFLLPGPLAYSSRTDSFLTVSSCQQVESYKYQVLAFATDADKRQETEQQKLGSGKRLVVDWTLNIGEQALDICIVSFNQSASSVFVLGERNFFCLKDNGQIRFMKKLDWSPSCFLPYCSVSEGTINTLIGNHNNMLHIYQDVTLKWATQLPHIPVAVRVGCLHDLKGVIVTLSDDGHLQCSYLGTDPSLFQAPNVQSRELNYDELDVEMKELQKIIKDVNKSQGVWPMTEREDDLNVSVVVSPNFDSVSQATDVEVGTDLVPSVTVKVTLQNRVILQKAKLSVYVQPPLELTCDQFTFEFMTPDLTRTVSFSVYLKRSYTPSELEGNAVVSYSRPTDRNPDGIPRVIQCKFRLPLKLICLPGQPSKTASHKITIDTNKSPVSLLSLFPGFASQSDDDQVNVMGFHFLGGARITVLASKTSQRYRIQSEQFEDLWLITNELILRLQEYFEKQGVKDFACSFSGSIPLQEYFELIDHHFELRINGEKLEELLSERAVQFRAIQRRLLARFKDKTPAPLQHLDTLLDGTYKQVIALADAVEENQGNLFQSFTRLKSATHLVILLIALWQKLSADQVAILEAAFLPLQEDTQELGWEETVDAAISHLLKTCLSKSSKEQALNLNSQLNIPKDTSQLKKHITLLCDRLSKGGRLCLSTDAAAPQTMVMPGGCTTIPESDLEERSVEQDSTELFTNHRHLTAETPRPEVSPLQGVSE
T1 sequence (A8MTZ0 whole entry partner): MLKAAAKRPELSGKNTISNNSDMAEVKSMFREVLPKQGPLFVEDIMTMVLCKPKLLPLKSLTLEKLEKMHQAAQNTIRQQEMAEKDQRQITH
Kind of assay: Fluorescence polarization binding of fluorescently labeled peptides to the core BBSome. Further details: species or system human.
Conditions: not given
An excerpt:
Our microarray data indicated multiple closely spaced binding epitopes in several cases. Where possible, we combined those epitopes into a single fluorescent peptide with up to 37 residues length to more fully reflect the binding site/motif. […] Cargo binding to the core BBSome with fluorescence polarization, measured by using fluorescently labeled peptides and the purified core BBSome. […] All peptides were N-terminally labeled with fluorescein, with an exception of a C-terminally TMR-labeled SSTR3 CT1 peptide (orange squares) that was used as a control to exclude nonspecific binding events due to the used fluorophore. […] (Data points exceeding this mark might indicate secondary binding events at high BBSome concentrations). (C) Fluorescent peptides from the C-terminus of Smo (Smo CT1-4) and a truncated Smoothened construct (Smo […]-[…]) were analyzed as described above. (D) The peptide SSTR3 CT2 that bound with highest affinity to the core BBSome was used as a template for the design and analysis of mutant peptides (SSTR3 CT3-9) with substitutions of one or multiple residues as indicated. Polarization experiments were performed as described above and dissociation constants (KD) are presented as ratios to the KD of the wild type peptide as a bar diagram. (E) Bar diagram of the relative affinities of SmoCT1 and CT3 relative to SmoCT4, as determined in C, and of mutant Smo CT4 peptides with substitutions as indicated. […] Cargo binding to the core BBSome. […] Core BBSome was added at the indicated concentrations and the increase in fluorescence polarization was monitored as a measure for the peptides binding to the protein complex. […] Mutational analysis of the BBSome binding peptides. […] The peptides SSTR3 CT2 (A) and of Smo CT4 (B) that bound with highest affinity to the core BBSome were used as templates for the design of mutant peptides with one or multiple aromatic/basic residue motifs changed to alanines as summarized in Table 1. Core BBSome was added at the indicated concentrations and the increase in fluorescence polarization was monitored as a measure for the peptides binding to the protein complex. […] Fluorescently labeled peptides were purchased from Proteogenix (Proteogenix SAS, France). Fluorescein-labels are located N-terminally to the peptide sequence and TAMRA at the C-terminal side. Fluorescence polarization experiments were performed using a Fluoromax-4 spectrophotometer (HORIBA Jobin Yvon, Germany) or a Safire two multimode plate reader (Tecan, Switzerland). Fluoresceine-labeled samples were measured with excitation/emission wavelengths of λEx = 490 nm and λEm = 520 nm with a bandwidth of 7 nm on the Fluoromax-4. […] Sample volumes were 20 μl in a 1,5 × 1,5 mm cuvette (Hellma Analytics, Germany) for the Fluoromax-4 and 4.5 μl in a 384 well low-binding plate (Corning, Germany). Data analysis was done with the Origin 9.0 program suite (Originlab, Northampton, MA). The polarization curves were fit against the function FI = Fmin […] Fmax corresponding to the fluorescence polarization signal and the signal of unbound and completely saturated fluorescent molecule E with interaction partner L, respectively. The concentrations of molecule E are indicated in the corresponding figure legends, and the calculated dissociation constants KD are listed in Table 1.
Turning to KRIKKSKMIAKAFSK [Smo CT2], the “binding to core BBSome (result in words)” value is “only weak interaction”.

Staying with this assay, now noted: N-terminally fluorescein-labeled peptide 0.1–1 µM titrated with purified core BBSome, fitted to binding curve.
Consider TLLIAARTAARLTGQSDDE [Smo CT7], for which the Kd (commonly a measure of binding affinity in units of concentration) was 14.3 µM.

Staying with this assay, now noted: N-terminally fluorescein-labeled peptide 0.1–1 µM titrated with purified core BBSome, fitted to binding curve, read-out: KD (converted).
GFLSAAFKQGFRRVLLRPSRRVRS [SSTR3 CT3]: the Kd was 1.1 µM.

As to RILQRMTSSVAPASQRSIRLRTKRVTRT [MCH 3ICL], the dissociation constant Kd was 68.8 ± 11.3 µM.

For the molecule GFLSAAFKQGAARVLLRPSRRVRS [SSTR3 CT6], the equilibrium dissociation constant (Kd) was 4.5 µM.

Consider “NKTVRKELLGMCFGDRYYREPFVQRQR [GPR161 CT1]”, for which the Kd is 67.4 ± 7.3 µM.

In the case of “VTARTVPGGGFGGRRGSRTLVS [GPR161 CT2, N-terminally fluorescein-labeled peptide from the C-terminal region of GPR161]”, the Kd was over 100 µM.

As for GFLSYRFKQGAARVLLRPSRRVRS [SSTR3 CT5], the Kd is 1.5 µM.

Regarding KRIKKSKMIAKAFSK [Smo CT2], the Kd is over 100 µM.

Regarding TLLIAARTWCRLTGQSDDE [Smo CT5], the Kd is 9.7 µM.

Turning to LLIGLRLRRERLLLMQEAKGRG [NMU 3ICL1], the dissociation constant Kd is 18.1 ± 1.6 µM.

In the case of TLLIWRRTAARLTGQSDDE [Smo CT6], the dissociation constant (Kd) was 12.5 µM.

As for FIFRVARVKARKVHCG [GPR161 3ICL], the Kd is 6.3 ± 1.5 µM.

For the molecule GFLSYRFKQGFRRVLLRPSRRVRS [SSTR3 CT2], the Kd was 0.11 µM.

“VKVRSAGRRVWAPSCQRRRRSERRVTRM [SSTR3 3ICL]”: the Kd was 12.8 ± 1.07 µM.

Regarding RFKQGFRRVLLRPSR [SSTR3 CT1], the Kd was 22.1 ± 1.4 µM.

Turning to GFLSAAAAQGFRRVLLRPSRRVRS [SSTR3 CT7], the dissociation constant (Kd) was 1 µM.

In the case of GFLSYRFKQGFRRVLLRPSEEVES [SSTR3 CT9], the Kd is 4.7 µM.

In the case of TLLIWRRTWCRLTGQ [Smo CT1], the Kd is 1.8 ± 0.5 µM.

Take `CC(C)C[C@H](NC(=O)[C@H](C)NC(=O)[C@H](CCCNC(=N)N)NC(=O)[C@H](CCCCN)NC(=O)[C@H](Cc1ccccc1)NC(=O)[C@H](CC(=O)O)NC(=O)[C@@H](N)CCCNC(=N)N)C(=O)NCC(=O)N[C@@H](CCCNC(=N)N)C(=O)N[C@@H](Cc1ccccc1)C(=O)N[C@@H](CC(C)C)C(=O)N1CCC[C@H]1C(=O)N[C@@H](CS)C(=O)N1CCC[C@H]1C(=O)N[C@@H](CCCNC(=N)N)C(=O)N[C@@H](CS)C(=O)N1CCC[C@H]1C(=O)N[C@@H](CCCNC(=N)N)C(=O)N[C@@H](CCC(=O)O)C(=O)N[C@@H](CCCNC(=N)N)C(=O)O` [5HT6 CT] (H-RDFKRALGRFLPCPRCPRER-OH): the dissociation constant (Kd) is 44.2 ± 10.9 µM.

As to “TLLIWRRTWCRLTGQSDDEPKRIKKSKMIAKAFSKRH [Smo CT3]”, the Kd is 1.4 µM.

As for “GRGSAAARSRYTCRLQQHDRGRRQ [NMU 3ICL2, N-terminally fluorescein-labeled peptide from the third intracellular loop of NMU-R1]”, the dissociation constant (Kd) was over 100 µM.

As for TLLIWRRTWCRLTGQSDDE [Smo CT4], the dissociation constant Kd was 1.1 µM.

As for KRLGRKKKRRKRKKE [Smo CT8], the Kd was 6.8 µM.

GFLSYRAAQGFRRVLLRPSRRVRS [SSTR3 CT4]: the Kd was 0.4 µM.

For the molecule GFLSAAAAQGAARVLLRPSRRVRS [SSTR3 CT8], the Kd is 11 µM.
